Here are results for 92 compounds from Sander's compilation of Henry's law constants (doi:10.1021/je3010535).

This series is described as follows: Henry solubility constant Hcp at 298.15 K (mol/(m3 Pa)). The note with it: reference: Hiatt (2013).
As to `ClCC(Cl)(Cl)Cl` [1,1,1,2-tetrachloroethane], the “Henry solubility constant Hcp” value worked out at 0.0048.

On to `CC(Cl)(Cl)Cl` [1,1,1-trichloroethane], for which the “Henry solubility constant Hcp” value amounted to 0.00069.

As to `ClC(Cl)C(Cl)Cl` [1,1,2,2-tetrachloroethane], the “Henry solubility constant Hcp” value was found to be 0.033.

With `[2H]C([2H])(Cl)C([2H])(Cl)Cl` [1,1,2-trichloroethane-d3], the “Henry solubility constant Hcp” value stood at 0.013.

As to `ClCC(Cl)Cl` [1,1,2-trichloroethane], the “Henry solubility constant Hcp” value turned out to be 0.014.

Take `C=C(Cl)Cl` [1,1-dichloroethene]: the “Henry solubility constant Hcp” value was determined as 0.00041.

As to `CC=C(Cl)Cl` [1,1-dichloropropene], the “Henry solubility constant Hcp” value came out at 0.00061.

Regarding `[2H]c1c([2H])c(Cl)c(Cl)c(Cl)c1[2H]` [1,2,3-trichlorobenzene-d3], the “Henry solubility constant Hcp” value stood at 0.015.

Take `Clc1cccc(Cl)c1Cl` [1,2,3-trichlorobenzene]: the “Henry solubility constant Hcp” value came to 0.015.

In the case of `ClCC(Cl)CCl` [1,2,3-trichloropropane], the “Henry solubility constant Hcp” value turned out to be 0.042.

As for `Cc1ccc(C)c(C)c1` [1,2,4-trimethylbenzene], the “Henry solubility constant Hcp” value was 0.0032.

`ClCC(Br)CBr` (configuration not stated) [1,2-dibromo-3-chloropropane]: the “Henry solubility constant Hcp” value was found to be 0.097.

For `[2H]C([2H])([2H])C([2H])(Cl)C([2H])([2H])Cl` (configuration not stated) [1,2-dichloropropane-d6], the “Henry solubility constant Hcp” value came to 0.0036.

In the case of `CC(Cl)CCl` (configuration not stated) [1,2-dichloropropane], the “Henry solubility constant Hcp” value amounted to 0.0043.

Turning to `[2H]c1c([2H])c([2H])c(C([2H])([2H])[2H])c(C([2H])([2H])[2H])c1[2H]` [1,2-dimethylbenzene-d10], the “Henry solubility constant Hcp” value was found to be 0.003.

With `Cc1ccccc1C` [1,2-dimethylbenzene], the “Henry solubility constant Hcp” value was 0.0032.

For `Cc1cc(C)cc(C)c1` [1,3,5-trimethylbenzene], the “Henry solubility constant Hcp” value was 0.0023.

In the case of `Clc1cccc(Cl)c1` [1,3-dichlorobenzene], the “Henry solubility constant Hcp” value was 0.0052.

Regarding `ClCCCCl` [1,3-dichloropropane], the “Henry solubility constant Hcp” value was found to be 0.013.

Turning to `Clc1ccc(Cl)cc1` [1,4-dichlorobenzene], the “Henry solubility constant Hcp” value is 0.0058.

Turning to `Fc1ccc(Br)cc1` [1-bromo-4-fluorobenzene], the “Henry solubility constant Hcp” value was 0.0053.

As for `Cc1ccc(Cl)cc1` [1-chloro-4-methylbenzene], the “Henry solubility constant Hcp” value worked out at 0.0041.

Turning to `Cc1ccc(C(C)C)cc1` [1-methyl-4-(1-methylethyl)-benzene], the “Henry solubility constant Hcp” value was found to be 0.0018.

As to `[2H]c1c([2H])c([2H])c2c(C([2H])([2H])[2H])c([2H])c([2H])c([2H])c2c1[2H]` [1-methylnaphthalene-d10], the “Henry solubility constant Hcp” value is 0.046.

As for `Cc1cccc2ccccc12` [1-methylnaphthalene], the “Henry solubility constant Hcp” value was 0.044.

Regarding `[2H]c1c([2H])c([2H])c(C(C)=O)c([2H])c1[2H]` [1-phenylethanone-d5], the “Henry solubility constant Hcp” value worked out at 2.3.

`CC(=O)c1ccccc1` [1-phenylethanone]: the “Henry solubility constant Hcp” value came out at 0.97.

As to `CC(C)(Cl)Cl` [2,2-dichloropropane], the “Henry solubility constant Hcp” value stood at 0.00044.

Regarding `[2H]C([2H])(O)C([2H])([2H])Cl` [2-chloroethanol-d4], the “Henry solubility constant Hcp” value was found to be 5.

In the case of `[2H]C([2H])([2H])C(=O)C([2H])([2H])CCC` [2-hexanone-1,1,1,3,3-d5], the “Henry solubility constant Hcp” value came out at 0.17.

As for `CCCCC(C)=O` [2-hexanone], the “Henry solubility constant Hcp” value was determined as 0.15.

As to `COCCO` [2-methoxyethanol], the “Henry solubility constant Hcp” value was determined as 4.4.

For `CCCCC(C)CO` (configuration not stated) [2-methyl-1-hexanol], the “Henry solubility constant Hcp” value came out at 0.69.

On to `Cc1ccc2ccccc2c1` [2-methylnaphthalene], for which the “Henry solubility constant Hcp” value was determined as 0.035.

Regarding `CC(C)O` [2-propanol], the “Henry solubility constant Hcp” value turned out to be 1.1.

For `C=CC#N` [2-propenenitrile], the “Henry solubility constant Hcp” value turned out to be 0.12.

`Cc1cc(C(C)(C)C)cc(C(C)(C)C)c1` [3,5-di-tert-butyltoluene]: the “Henry solubility constant Hcp” value was found to be 0.0037.

Regarding `Cc1cc(Br)cc(Br)c1` [3,5-dibromotoluene], the “Henry solubility constant Hcp” value amounted to 0.017.

With `C=CCCl` [3-chloro-1-propene], the “Henry solubility constant Hcp” value is 0.0013.

In the case of `CC(=O)CC(C)C` [4-methyl-2-pentanone], the “Henry solubility constant Hcp” value was 0.1.

Regarding `CC(C)(C)c1ccccc1` [(1,1-dimethylethyl)-benzene], the “Henry solubility constant Hcp” value came out at 0.0016.

In the case of `CCC(C)c1ccccc1` (configuration not stated) [(1-methylpropyl)-benzene], the “Henry solubility constant Hcp” value was determined as 0.0013.

As to `CC(C)c1ccccc1` [(2-propyl)-benzene], the “Henry solubility constant Hcp” value came out at 0.0014.

As for `ClC/C=C/CCl` [(E)-1,4-dichloro-2-butene], the “Henry solubility constant Hcp” value came to 0.035.

Turning to `ClC/C=C\CCl` [(Z)-1,4-dichloro-2-butene], the “Henry solubility constant Hcp” value came out at 0.03.

Consider `ClCc1ccccc1` [(chloromethyl)-benzene], for which the “Henry solubility constant Hcp” value turned out to be 0.02.

As to `[2H]c1c([2H])c([2H])c([2H])c([2H])c1[2H]` [benzene-d6], the “Henry solubility constant Hcp” value came out at 0.0018.

Regarding `c1ccccc1` [benzene], the “Henry solubility constant Hcp” value was 0.0018.

Take `[2H]c1c([2H])c([2H])c(Br)c([2H])c1[2H]` [bromobenzene-d5]: the “Henry solubility constant Hcp” value was found to be 0.0065.

As for `Brc1ccccc1` [bromobenzene], the “Henry solubility constant Hcp” value came out at 0.006.

As to `ClCBr` [bromochloromethane], the “Henry solubility constant Hcp” value was determined as 0.0066.

As to `ClC(Cl)Br` [bromodichloromethane], the “Henry solubility constant Hcp” value is 0.0052.

Turning to `CBr` [bromomethane], the “Henry solubility constant Hcp” value was 0.0013.

Take `CCCCc1ccccc1` [butylbenzene]: the “Henry solubility constant Hcp” value turned out to be 0.002.

`S=C=S` [carbon disulfide]: the “Henry solubility constant Hcp” value stood at 0.00057.

Consider `[2H]c1c([2H])c([2H])c(Cl)c([2H])c1[2H]` [chlorobenzene-d5], for which the “Henry solubility constant Hcp” value worked out at 0.0036.

Consider `Clc1ccccc1` [chlorobenzene], for which the “Henry solubility constant Hcp” value worked out at 0.0037.

In the case of `CCCl` [chloroethane], the “Henry solubility constant Hcp” value turned out to be 0.00085.

For `[2H]C([2H])=C([2H])Cl` [chloroethene-d3], the “Henry solubility constant Hcp” value turned out to be 0.00038.

Take `C=CCl` [chloroethene]: the “Henry solubility constant Hcp” value came out at 0.00039.

Take `Cl/C=C\CCl` [cis-1,3-dichloropropene]: the “Henry solubility constant Hcp” value was 0.0095.

As for `C1CCCCC1` [cyclohexane], the “Henry solubility constant Hcp” value was 0.00032.

Regarding `Fc1c(F)c(F)c(-c2c(F)c(F)c(F)c(F)c2F)c(F)c1F` [decafluorobiphenyl], the “Henry solubility constant Hcp” value was 0.0067.

With `ClC(Br)Br` [dibromochloromethane], the “Henry solubility constant Hcp” value worked out at 0.011.

`BrCBr` [dibromomethane]: the “Henry solubility constant Hcp” value stood at 0.012.

`FC(F)(Cl)Cl` [dichlorodifluoromethane]: the “Henry solubility constant Hcp” value turned out to be 0.00013.

With `[2H]C([2H])(Cl)Cl` [dichloromethane-d2], the “Henry solubility constant Hcp” value turned out to be 0.0038.

On to `ClCCl` [dichloromethane], for which the “Henry solubility constant Hcp” value was found to be 0.004.

Consider `[2H]C([2H])([2H])C([2H])([2H])OC([2H])([2H])C([2H])([2H])[2H]` [diethyl ether-d10], for which the “Henry solubility constant Hcp” value stood at 0.013.

In the case of `CCOCC` [diethyl ether], the “Henry solubility constant Hcp” value turned out to be 0.011.

For the compound `CC#N` [ethanenitrile], the “Henry solubility constant Hcp” value stood at 0.6.

Take `C=Cc1ccccc1` [ethenylbenzene]: the “Henry solubility constant Hcp” value was 0.0044.

Take `CCO[13C](C)=O` [ethyl ethanoate-1-13C]: the “Henry solubility constant Hcp” value was 0.071.

For the compound `[2H]c1c([2H])c([2H])c(C([2H])([2H])C([2H])([2H])[2H])c([2H])c1[2H]` [ethylbenzene-d10], the “Henry solubility constant Hcp” value was 0.002.

Consider `CCc1ccccc1` [ethylbenzene], for which the “Henry solubility constant Hcp” value was found to be 0.002.

As to `Fc1ccccc1` [fluorobenzene], the “Henry solubility constant Hcp” value turned out to be 0.0016.

For the compound `ClC(Cl)=C(Cl)C(Cl)=C(Cl)Cl` [hexachlorobutadiene], the “Henry solubility constant Hcp” value was determined as 0.0023.

Consider `Fc1c(F)c(F)c(F)c(F)c1F` [hexafluorobenzene], for which the “Henry solubility constant Hcp” value worked out at 0.00055.

On to `CI` [iodomethane], for which the “Henry solubility constant Hcp” value amounted to 0.0018.

Turning to `COC(C)=O` [methyl ethanoate], the “Henry solubility constant Hcp” value was 0.12.

For the compound `C=C(C)C(=O)OC` [methyl methacrylate], the “Henry solubility constant Hcp” value was found to be 0.043.

With `[2H]c1c([2H])c([2H])c(C([2H])([2H])[2H])c([2H])c1[2H]` [methylbenzene-d8], the “Henry solubility constant Hcp” value came out at 0.002.

Regarding `Cc1ccccc1` [methylbenzene], the “Henry solubility constant Hcp” value was 0.0021.

For `[2H]C([2H])([2H])C1([2H])C([2H])([2H])C([2H])([2H])C([2H])([2H])C([2H])([2H])C1([2H])[2H]` [methylcyclohexane-d14], the “Henry solubility constant Hcp” value came out at 0.00031.

Take `CC1CCCCC1` [methylcyclohexane]: the “Henry solubility constant Hcp” value was determined as 0.00032.

On to `[2H]c1c([2H])c([2H])c2c([2H])c([2H])c([2H])c([2H])c2c1[2H]` [naphthalene-d8], for which the “Henry solubility constant Hcp” value was 0.035.

As for `c1ccc2ccccc2c1` [naphthalene], the “Henry solubility constant Hcp” value was 0.033.

As to `[2H]c1c([2H])c([2H])c([N+](=O)[O-])c([2H])c1[2H]` [nitrobenzene-d5], the “Henry solubility constant Hcp” value worked out at 0.85.

As for `O=[N+]([O-])c1ccccc1` [nitrobenzene], the “Henry solubility constant Hcp” value came to 0.64.

`ClC(Cl)C(Cl)(Cl)Cl` [pentachloroethane]: the “Henry solubility constant Hcp” value is 0.0059.

In the case of `Fc1cc(F)c(F)c(F)c1F` [pentafluorobenzene], the “Henry solubility constant Hcp” value turned out to be 0.00075.

For the compound `C[13C](C)=O` [propanone-2-13C], the “Henry solubility constant Hcp” value stood at 0.31.
